Source: patent EP4663204A1, “COMPOUNDS USEFUL FOR THE MODULATION OF THE ACTIVITY OF STING” (Sulis Therapeutics ApS, priority 2024, dated 2025)
Entries after “also recorded” stand apart in the source; their conditions may differ.

Tests used:
STING [1] = target: T1, STING (Homo sapiens, UniProt Q86WV6); experiment: Western Blot analysis for STING degradation in H596, H1650 and HaCat cells; assay type: cell-based; details: 0.22 µM, 0.67 µM, 2 µM and 6 µM, 24h, Figure 4
Procedure: To assess STING degradation in H596 cells (ATCC, HTB-178) cells were seeded at a density of 100.000 cells/well in 24-well Nunclon Delta surface treated culture plate in RPMI-1640 growth medium (supplemented with 10% FBS, 1% Pen-strep). Cells were incubated over-night at 37°C 5% CO2 to allow adhesion. Next day growth medium was renewed and a 5x concentration of test compounds (2.5% DMSO) diluted in growth medium were added to the appropriate well. Final DMSO concentration was 0.5%. Cell culture plates were returned to the incubator for additional 24h. The same protocols were used to grow H1650 and HaCat cells except that cells were seeded at a density of 150,000 cells/well and 250,000 cells/well, respectively
Final test compound concentrations were 0.22 µM, 0.67 µM, 2 µM and 6 µM.
For cell lysis, western blotting and data analysis, the following methods were applied.
For cell lysing for Western Blot analysis cell culture plates were brought to ice, supernatant was removed by aspiration and cells washed 2x in ice-cold DPBS. […] Samples were either analysed directly or stored at -80°C until analysis.
For Western Blotting, total protein concentration in each lysate was determined using PIERCE Gold BCA Assay kit according to manufactures protocol. […]

[2] = Pharmacokinetic profiling in mouse; assay type: in vivo; details: plasma, sc, mice, subcutaneous injection (8 mg/kg stated for Example compound 12), 8 hours after injection
Procedure: Mice were administered with 8 mg/kg Example compound 12 by subcutaneous injection. Plasma concentration of test compound was measured over the course of 8 hours.

[3] = target: T2, constitutively active STING (comprising a N154S mutation) (Homo sapiens, UniProt Q86WV6, N154S); experiment: Western Blot analysis for STING degradation in SAVI patient primary fibroblast cells; assay type: cell-based; details: SAVI patient fibroblasts (N154S); 1 µM; 20 hours; Figure 7
T2 construct: primary fibroblast cells with constitutively active STING (comprising a N154S mutation), derived from SAVI patients; endogenous in cells; host or cells: SAVI patient primary fibroblasts
Procedure: (§1) For this study, STING degradation was assessed in primary fibroblast cells with constitutively active STING (comprising a N154S mutation), derived from SAVI patients, and compared to healthy donor primary fibroblast cells.
(§2) Cells were seeded at 50,000 cells/well and cultured under standard conditions for 24 hours. Media was replaced with test compound and incubated for 20 hours prior to analysis.
(§3) Cell culture medium was replaced with fresh medium containing 1 µM Example compound and incubated for 20 hours. For cell lysis and western blotting, the methods described above for HFF-1 cells were applied.

STING [4] = target: T1, STING; experiment: Western Blot analysis for STING recovery following compound washout in HFF-1 cells; assay type: cell-based; parameters: To assess STING degradation and recovery in human foreskin fibroblasts HFF-1 cells; host or cells: HFF-1 human foreskin fibroblasts; details: 24 hours treatment, 48 hours after washout, Figure 6
Procedure: To assess STING degradation and recovery in human foreskin fibroblasts HFF-1 cells (ATCC, SCRC-1041) cells were seeded at a density of 60.000 cells/well in 24-well Nunclon Delta surface treated culture plate in DMEM growth medium (supplemented with 10% FBS, 1% Pen-strep). Cells were incubated over-night at 37°C 5% CO2 to allow adhesion. Next day growth medium was renewed and a 5x concentration of test compounds (2.5% DMSO) diluted in growth medium were added to the appropriate well. The final DMSO concentration were 0.5%. Cell culture plates were returned to the incubator for additional 24h.
Methods as described above for H596, H1650 and HaCat cells were applied for cell lysis and western blotting. Following 24 hours incubation with the test compounds, cell culture medium containing Example compound was removed, cells washed with fresh medium without Example compound, and incubated in fresh medium without Example compound for the indicated time.

[5] = system: CXCL10, IL-6, MCP-1 (CCL2), MIP-1α (CCL3) and IFN-γ; experiment: Serum cytokine and chemokine levels in mice, with or without LPS (V-Plex immunoassay); assay type: in vivo; details: compound followed by LPS 16 hours later
Procedure: A compound of the invention (Example compound 12; "Ex 12"), or a control S1-L-E compound (control Example compound 7; "Ex 7"), were administered to subjects following the in vivo protocol of Example 1. 16 hours after that administration, some subjects were administered lipopolysaccharide (LPS).
In subjects that received LPS alone, serum levels of CXCL10, IL-6, MCP-1 (CCL2) and MIP-1α (CCL3) were raised 100-1000 fold above the levels in control subjects that received vehicle alone. (In both cases, IFN-γ levels were below the 10 pg/mL threshold of detection.) In subjects that received the compound of the invention, followed by LPS 16 hours later, CXCL10, IL-6, MCP-1 (CCL2) and MIP-1α (CCL3) levels were a further ten-fold higher than the levels in subjects that received LPS alone (see Figure 2). […] IFN-γ levels were only detectable in subjects that had been administered the compound of the invention, with LPS treatment after 16 hours resulting in a further elevation in IFN-γ levels to a small extent. Quantification of cytokines and chemokines was performed on individual serum samples that were stored frozen (≤ -20 °C) after collection, using the electrochemiluminescence-based immunoassay and a custom mouse 5-plex panel according to the manufacturer's instructions (V-Plex assay, Mesoscale Discovery, USA).

wild-type STING = target: T3, wild-type STING (Homo sapiens, UniProt Q86WV6); experiment: Western Blot analysis for STING degradation in healthy donor primary fibroblast cells; assay type: cell-based; details: healthy donor fibroblasts; 1 µM; 20 hours; Figure 7
T3 construct: compared to healthy donor primary fibroblast cells; endogenous in cells; host or cells: healthy donor primary fibroblasts
Procedure: as §1, §2, §3

T1 sequence (Q86WV6 whole entry): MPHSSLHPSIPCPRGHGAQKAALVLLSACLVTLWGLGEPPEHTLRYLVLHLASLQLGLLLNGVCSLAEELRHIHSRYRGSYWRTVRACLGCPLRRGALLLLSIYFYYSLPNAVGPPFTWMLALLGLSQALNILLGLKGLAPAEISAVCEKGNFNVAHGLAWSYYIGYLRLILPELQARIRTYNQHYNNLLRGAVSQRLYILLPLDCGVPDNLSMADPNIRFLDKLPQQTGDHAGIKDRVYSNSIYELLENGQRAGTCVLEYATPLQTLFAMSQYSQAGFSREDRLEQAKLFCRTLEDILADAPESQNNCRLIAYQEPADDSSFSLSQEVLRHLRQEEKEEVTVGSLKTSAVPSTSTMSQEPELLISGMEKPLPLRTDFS
T3 sequence (Q86WV6 whole entry): as above
T2 sequence (Q86WV6 whole entry N154S): as the sequence (Q86WV6 whole entry) above, with N154S counted along it

concentration at 8 h [2] [µM] | STING degradation [3] | STING protein recovery after washout (STING [4]) | STING degradation (wild-type STING) | SMILES | STING degradation (STING [1]) | CXCL10, IL-6, MCP-1 (CCL2) and MIP-1α (CCL3) levels relative to subjects that received LPS alone [5]
– | – | – | – | CCn1nc(C)cc1C(=O)N=c1n(C)c2cc(C(N)=O)ccc2n1CCC(CCn1c(=NC(=O)c2cc(C)nn2CC)n(C)c2cc(C(N)=O)ccc21)OCC(=O)NCCOCCOCCOCCOCCC(=O)NCCOCCOCCOCCOCC(=O)N[C@H](C(=O)N1C[C@H](O)C[C@H]1C(=O)NCc1ccc(-c2scnc2C)cc1)C(C)(C)C (stereo partly shown) [Example compound 6] | induction of STING degradation; also recorded: induces visible degradation in H1650 and H596 at higher concentrations | –
~0.1 | induce STING degradation | fail to recover to pre-treatment levels | induce STING degradation | CCn1nc(C)cc1C(=O)N=c1n(C)c2cc(C(N)=O)ccc2n1CCC(CCn1c(=NC(=O)c2cc(C)nn2CC)n(C)c2cc(C(N)=O)ccc21)OCC(=O)NCCOCCOCCOCCOCCC(=O)NCCOCCOCCOCCOCCNc1cccc2c1C(=O)N(C1CCC(=O)NC1=O)C2=O (stereo not shown) [Example compound 7] | induction of STING degradation; also recorded: induce STING degradation in all cell lines tested at all concentrations tested | only further elevated to a small extent
